# Read-outs that look alike come from different tables or passages of the source.
# Columns and labels:
# CDK2/Cyclin E1 complex = CDK2/Cyclin E1 complex (Homo sapiens, UniProt P24941); assay: CDK2 kinase inhibition assay (Caliper/LabChip EZ Reader)
# Experimental: (§2) Compounds described herein were assayed for inhibition of CDK7, CDK9, CDK12, and CDK2 activity at Biortus Biosciences (Jiangyin, Jiangsu Province, P.R. of China) using kinase assays for each CDK developed with a Caliper/LabChip EZ Reader (Perkin Elmer, Waltham, Mass.).
# (§3) Furthermore, the CDK9 inhibition assay used CDK9/Cyclin T1 complex (8 nM) and “5-FAM-CDK9tide” peptide substrate (2 μM, synthesized fluorophore-labeled peptide with the following sequence: 5-FAM-GSRTPMY-NH2 (SEQ ID NO:2) where 5-FAM is defined above and NH2 signifies a C-terminal amide) with 10 mM MgCl2 in the buffer composition listed above. The CDK12 inhibition assay used CDK12 (aa686-1082)/Cyclin K complex (50 nM) and “5-FAM-CDK9tide” (2 μM) as defined above, with 2 mM MgCl2 in the buffer composition above. Additionally, the CDK2 inhibition assay used CDK2/Cyclin E1 complex (0.5 nM) and “5-FAM-CDK7tide” (2 μM; defined above) with 2 mM MgCl2 in the buffer composition above.
# (§4) The incubation period at 27° C. for each CDK inhibition assay was chosen such that the fraction of phosphorylated peptide product produced in each assay, relative to the total peptide concentration, was approximately 20% (±5%) for the uninhibited kinase (35 min. for CDK7, 35 min. for CDK2, 3 hr. for CDK12, 15 min. for CDK9).
# MB453 cells = assay: Inhibition of cell proliferation (CyQUANT Direct), MB453; type: cell-based, human; conditions: MB453, 72-hour
# Experimental: (§1) HCC70 and MB453 cells are cell lines derived from human triple negative breast cancer COV318 and COV504 cells are cell lines derived from human ovarian cancer. Representative compounds of the invention were tested at different concentrations (from 4 μM to 126.4 pM; 0.5 log serial dilutions) for their ability to inhibit the proliferation of each of these cell lines. Known CDK inhibitors dinaciclib or N-((1S,3R)-3-((5-chloro-4-(1H-indol-3-yl) pyrimidin-2-yl)amino)cyclohexyl)-5-((E)-4-(dimethylamino)but-2-enamido)picolinamide and triptolide were used as positive controls. Cells were seeded at approximately 2,000 cells/well and grown in ATCC-formulated RPMI-1640 Medium (ATCC 30-2001)+10% FBS. The cells were cultured at 37° C. in a humidified chamber in the presence of 5% CO2. Proliferation assays were conducted over a 72-hour time period. CyQUANT® Direct Cell Proliferation Assay (Life Technologies, Chicago, Ill. USA) was used to assess the anti-proliferative effects of the compounds following manufacturer's directions and utilizing the reagents supplied with the CyQUANT® Direct Cell kit.
# HCC70 cells = assay: Inhibition of cell proliferation (CyQUANT Direct), HCC70; type: cell-based, human; conditions: HCC70, 72-hour
# Experimental: as §1
# COV318 cells = assay: Inhibition of cell proliferation (CyQUANT Direct), COV318; type: cell-based, human; conditions: COV318, 72-hour
# Experimental: as §1
# CDK9/Cyclin T1 complex = CDK9/Cyclin T1 complex (Homo sapiens, UniProt P50750); assay: CDK9 kinase inhibition assay (Caliper/LabChip EZ Reader)
# Chain of CDK9/Cyclin T1 complex (P50750 whole entry): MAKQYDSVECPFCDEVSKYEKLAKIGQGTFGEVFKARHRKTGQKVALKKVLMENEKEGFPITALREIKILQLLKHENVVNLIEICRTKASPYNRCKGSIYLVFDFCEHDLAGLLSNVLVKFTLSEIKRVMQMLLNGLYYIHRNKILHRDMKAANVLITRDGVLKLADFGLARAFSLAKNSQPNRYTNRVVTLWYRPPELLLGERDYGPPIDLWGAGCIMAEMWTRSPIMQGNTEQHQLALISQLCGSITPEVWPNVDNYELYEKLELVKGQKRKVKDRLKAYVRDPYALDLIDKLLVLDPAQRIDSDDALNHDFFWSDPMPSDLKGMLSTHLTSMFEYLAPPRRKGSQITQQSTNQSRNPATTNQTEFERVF
# Chain of CDK9/Cyclin T1 complex (O60563 whole entry partner): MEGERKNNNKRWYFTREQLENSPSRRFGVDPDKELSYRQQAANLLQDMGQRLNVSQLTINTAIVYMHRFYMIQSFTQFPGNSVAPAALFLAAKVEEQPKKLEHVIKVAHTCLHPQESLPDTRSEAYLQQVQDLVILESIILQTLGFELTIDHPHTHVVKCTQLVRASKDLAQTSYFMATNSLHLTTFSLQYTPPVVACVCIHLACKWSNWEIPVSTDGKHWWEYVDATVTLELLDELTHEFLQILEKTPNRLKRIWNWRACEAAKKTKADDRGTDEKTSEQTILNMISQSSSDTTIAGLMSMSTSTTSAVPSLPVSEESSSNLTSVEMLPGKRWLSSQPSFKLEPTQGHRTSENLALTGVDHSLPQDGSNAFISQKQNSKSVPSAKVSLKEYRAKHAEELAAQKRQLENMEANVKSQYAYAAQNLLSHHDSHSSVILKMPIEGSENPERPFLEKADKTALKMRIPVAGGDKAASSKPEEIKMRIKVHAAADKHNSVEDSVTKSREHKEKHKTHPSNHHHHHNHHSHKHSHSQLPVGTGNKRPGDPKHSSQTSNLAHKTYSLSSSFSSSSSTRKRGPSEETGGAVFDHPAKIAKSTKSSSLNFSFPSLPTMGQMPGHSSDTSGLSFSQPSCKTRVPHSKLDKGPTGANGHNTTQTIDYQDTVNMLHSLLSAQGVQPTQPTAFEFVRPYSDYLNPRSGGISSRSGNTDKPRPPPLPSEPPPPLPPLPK
# Experimental: as §2, §3, §4
# COV504 cells = assay: Inhibition of cell proliferation (CyQUANT Direct), COV504; type: cell-based, human; conditions: COV504, 72-hour
# Experimental: as §1
# [1] = target: CDK12 (aa686-1082)/Cyclin K complex (Homo sapiens, UniProt Q9NYV4); assay: CDK12 kinase inhibition assay (Caliper/LabChip EZ Reader)
# Chain of CDK12 (aa686-1082)/Cyclin K complex (Q9NYV4 686-1082): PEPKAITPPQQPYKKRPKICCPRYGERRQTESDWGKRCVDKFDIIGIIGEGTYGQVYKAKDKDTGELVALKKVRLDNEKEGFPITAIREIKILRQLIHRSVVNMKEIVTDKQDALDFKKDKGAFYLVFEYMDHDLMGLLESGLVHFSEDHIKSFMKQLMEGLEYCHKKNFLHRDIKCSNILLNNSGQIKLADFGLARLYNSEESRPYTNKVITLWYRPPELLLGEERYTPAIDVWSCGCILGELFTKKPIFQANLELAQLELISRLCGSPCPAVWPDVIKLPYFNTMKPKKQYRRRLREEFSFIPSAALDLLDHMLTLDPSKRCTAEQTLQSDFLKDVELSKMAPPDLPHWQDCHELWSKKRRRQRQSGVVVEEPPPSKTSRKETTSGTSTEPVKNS
# Chain of CDK12 (aa686-1082)/Cyclin K complex (O75909 whole entry partner, the tested form may be a part): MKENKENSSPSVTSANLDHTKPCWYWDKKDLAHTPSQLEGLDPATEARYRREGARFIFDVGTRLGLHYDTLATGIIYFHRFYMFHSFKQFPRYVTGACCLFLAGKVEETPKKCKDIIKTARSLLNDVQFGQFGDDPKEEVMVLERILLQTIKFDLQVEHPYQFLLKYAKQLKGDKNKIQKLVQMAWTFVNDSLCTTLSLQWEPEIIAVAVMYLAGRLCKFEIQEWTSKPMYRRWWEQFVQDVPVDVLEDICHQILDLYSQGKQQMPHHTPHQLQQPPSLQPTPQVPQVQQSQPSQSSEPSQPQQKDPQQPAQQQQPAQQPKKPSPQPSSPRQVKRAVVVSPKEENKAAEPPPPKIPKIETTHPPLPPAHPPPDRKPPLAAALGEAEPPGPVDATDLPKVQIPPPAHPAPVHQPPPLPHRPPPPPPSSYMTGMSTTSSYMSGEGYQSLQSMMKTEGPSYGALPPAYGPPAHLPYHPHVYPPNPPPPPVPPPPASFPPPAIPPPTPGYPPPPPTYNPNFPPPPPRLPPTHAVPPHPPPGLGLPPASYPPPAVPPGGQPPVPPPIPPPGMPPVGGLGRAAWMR
# [2] = target: CDK7/Cyclin H/MAT1 complex (Homo sapiens, UniProt P50613); assay: CDK7 kinase inhibition assay (Caliper/LabChip EZ Reader)
# Chain of CDK7/Cyclin H/MAT1 complex (P50613 whole entry, the tested form may be a part): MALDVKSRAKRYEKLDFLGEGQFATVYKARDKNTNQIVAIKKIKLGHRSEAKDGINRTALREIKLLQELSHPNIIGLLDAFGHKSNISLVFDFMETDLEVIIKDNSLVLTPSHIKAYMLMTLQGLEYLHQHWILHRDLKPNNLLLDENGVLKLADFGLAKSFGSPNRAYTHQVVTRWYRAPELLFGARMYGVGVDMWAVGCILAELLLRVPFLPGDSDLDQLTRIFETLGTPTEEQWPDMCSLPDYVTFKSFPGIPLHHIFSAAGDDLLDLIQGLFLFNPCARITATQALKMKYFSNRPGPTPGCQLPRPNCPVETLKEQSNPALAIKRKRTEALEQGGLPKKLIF
# Chain of CDK7/Cyclin H/MAT1 complex (P51946 whole entry partner, the tested form may be a part): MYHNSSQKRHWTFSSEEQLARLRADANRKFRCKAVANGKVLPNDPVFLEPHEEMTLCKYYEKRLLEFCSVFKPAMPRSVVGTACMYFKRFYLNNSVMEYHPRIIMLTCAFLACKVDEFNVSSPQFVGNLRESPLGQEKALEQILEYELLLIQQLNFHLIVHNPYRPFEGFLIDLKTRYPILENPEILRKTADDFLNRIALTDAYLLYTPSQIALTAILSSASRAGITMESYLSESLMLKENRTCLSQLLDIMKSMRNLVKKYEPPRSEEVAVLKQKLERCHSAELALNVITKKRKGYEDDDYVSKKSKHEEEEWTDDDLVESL
# Chain of CDK7/Cyclin H/MAT1 complex (P51948 whole entry partner, the tested form may be a part): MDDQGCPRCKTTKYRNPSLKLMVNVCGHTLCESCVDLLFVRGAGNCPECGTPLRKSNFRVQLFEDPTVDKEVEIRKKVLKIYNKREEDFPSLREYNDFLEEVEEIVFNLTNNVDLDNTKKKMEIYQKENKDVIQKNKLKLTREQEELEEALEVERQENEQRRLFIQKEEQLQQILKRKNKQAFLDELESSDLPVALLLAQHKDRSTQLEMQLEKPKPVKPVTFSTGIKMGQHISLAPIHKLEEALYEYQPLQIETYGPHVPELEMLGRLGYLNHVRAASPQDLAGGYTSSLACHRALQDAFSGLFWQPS
# Experimental: as §2, §3, §4
Compound,"IC50 (CDK2/Cyclin E1 complex; read-out: CDK2 IC50, CDK2/Cyclin E1 0.5 nM, ATP 2 mM, 35 min at 27° C.) [nM]",IC50 (MB453 cells) [nM],IC50 (HCC70 cells) [nM],IC50 (COV318 cells) [nM],"IC50 (CDK9/Cyclin T1 complex; read-out: CDK9 IC50, CDK9/Cyclin T1 8 nM, ATP 2 mM, 15 min at 27° C.) [nM]",IC50 (COV504 cells) [nM],"IC50 ([1]; read-out: CDK12 IC50, CDK12 (aa686-1082)/Cyclin K 50 nM, ATP 2 mM, 3 hr at 27° C.) [nM]","IC50 ([2]; read-out: CDK7 IC50, CDK7/Cyclin H/MAT1 6 nM, ATP 2 mM, 35 min at 27° C.) [nM]",IC50 (CDK2/Cyclin E1 complex) [nM],IC50 (MB453 cells; Homo sapiens) [nM],IC50 (HCC70 cells; Homo sapiens) [nM],IC50 (COV318 cells; Homo sapiens) [nM],IC50 (CDK9/Cyclin T1 complex) [nM],IC50 (COV504 cells; Homo sapiens) [nM],IC50 [1] [nM],IC50 [2] [nM]
"(3S,4S)-tert-butyl 3-((4-(6-(3,5-dimethylisoxazol-4-yl)-1H-indol-3-yl)-5-(trifluoromethyl)pyrimidin-2-yl)amino)-4-methylpiperidine-1-carboxylate [Compound 135]",> 500,< 100,100 to 500,> 1000,> 500,< 100,> 500,30 to 100,–,–,–,–,–,–,–,–
"Cc1nc(-c2ccc3c(-c4nc(N[C@H]5CC[C@H](C)NC5)ncc4C(F)(F)F)n[nH]c3n2)no1 [Compound 167, 4-[6-(5-methyl-1,2,4-oxadiazol-3-yl)-1H-pyrazolo[3,4-b]pyridin-3-yl]-N-[(3S,6S)-6-methyl-3-piperidyl]-5-(trifluoromethyl)pyrimidin-2-amine]",–,–,–,–,–,–,–,–,> 500,100 to 500,< 100,100 to 500,> 500,< 100,> 500,< 30
O[C@H]1CNC[C@@H](Nc2ncc(C(F)(F)F)c(-c3c[nH]c4cc(-c5nccs5)ccc34)n2)C1 [Compound 107],–,–,–,–,–,–,–,–,> 500,100 to 500,100 to 500,100 to 500,> 500,100 to 500,> 500,< 30
"Cc1nocc1-c1ccc2c(-c3nc(N[C@@H]4CC[C@@H](C)NC4)ncc3C(F)(F)F)c[nH]c2n1 [Compound 157, 4-[6-(3-methylisoxazol-4-yl)-1H-pyrrolo[2,3-b]pyridin-3-yl]-N-[(3R,6R)-6-methyl-3-piperidyl]-5-(trifluoromethyl)pyrimidin-2-amine]",–,–,–,–,–,–,–,–,> 500,< 100,< 100,< 100,> 500,< 100,> 500,< 30
"Cc1nnc(-c2ccc3c(-c4nc(N[C@@H]5CC[C@@H](C)NC5)ncc4C(F)(F)F)c[nH]c3n2)s1 [Compound 158, N-[(3R,6R)-6-methyl-3-piperidyl]-4-[6-(5-methyl-1,3,4-thiadiazol-2-yl)-1H-pyrrolo[2,3-b]pyridin-3-yl]-5-(trifluoromethyl)pyrimidin-2-amine]",–,–,–,–,–,–,–,–,> 500,< 100,< 100,100 to 500,> 500,< 100,> 500,< 30
"Cc1nnc(C)n1-c1ccc2c(-c3nc(N[C@H]4CCCNC4)ncc3C(F)(F)F)c[nH]c2n1 [Compound 140, 4-[6-(3,5-dimethyl-1,2,4-triazol-4-yl)-1H-pyrrolo[2,3-b]pyridin-3-yl]-N-[(3S)-3-piperidyl]-5-(trifluoromethyl)pyrimidin-2-amine]",–,–,–,–,–,–,–,–,> 500,500 to 1000,> 1000,> 1000,> 500,100 to 500,> 500,< 30
CO[C@H]1CNC[C@@H](Nc2ncc(C(F)(F)F)c(-c3c[nH]c4cc(-c5c(C)noc5C)ccc34)n2)C1 [Compound 131],–,–,–,–,–,–,–,–,> 500,< 100,100 to 500,100 to 500,> 500,< 100,> 500,< 30
"Cc1noc(C)c1-c1ccc2c(-c3nc(N[C@H]4CCCNC4)ncc3C(F)(F)F)c[nH]c2n1 [Compound 101, 4-[6-(3,5-dimethylisoxazol-4-yl)-1H-pyrrolo-[2,3-b]-pyridin-3-yl]-N-[(3S)-3-piperidyl]-5-(trifluoromethyl)pyrimidin-2-amine]",–,–,–,–,–,–,–,–,> 500,< 100,< 100,< 100,> 500,< 100,100 to 500,< 30

# Source: US11311542B2, “Inhibitors of cyclin dependent kinase 7 (CDK7)” (Syros Pharmaceuticals, Inc., priority 2018, dated 2022)
